Organism: Cavia porcellus
Experiment: Ratio of Kinactivation to KI of guinea pig recombinant liver TGase expressed in Escherichia coli

First: COC(=O)CNC(=O)[C@H](CCN1C(=O)C=CC1=O)NC(=O)OCc1ccccc1
Second: COC(=O)CNC(=O)[C@H](CCCN1C(=O)C=CC1=O)NC(=O)OCc1ccccc1
The Ratio of the first is lower: 0.28 mM⁻¹ min⁻¹ for the first, 0.43 mM⁻¹ min⁻¹ for the second.

Compared with O=C(N[C@@H](CCCN1C(=O)C=CC1=O)C(=O)OCc1ccccc1)OCc1ccccc1, O=C(N[C@@H](CCCCN1C(=O)C=CC1=O)C(=O)OCc1ccccc1)OCc1ccccc1 is higher in Ratio: 6.26 mM⁻¹ min⁻¹ for the first, 17.1 mM⁻¹ min⁻¹ for the second.

Going from COC(=O)CNC(=O)[C@H](CCCCN1C(=O)C=CC1=O)NC(=O)OCc1ccccc1 to O=C(N[C@@H](CCN1C(=O)C=CC1=O)C(=O)OCc1ccccc1)OCc1ccccc1, the Ratio falls from 0.83 mM⁻¹ min⁻¹ to 0.67 mM⁻¹ min⁻¹.
